ChEMBL document CHEMBL5131521, “The N,N,O-Trisubstituted Hydroxylamine Isostere and Its Influence on Lipophilicity and Related Parameters” (ACS Med Chem Lett, 2022)
Converted amounts (≈) assume the structure as drawn.

Legend:
[1] = Lipophilicity, logP of the compound by LC/UV/MS analysis; format: physicochemical; settings: octanol/water
[2] = Lipophilicity, logD of compound at pH 7.4 by shake flask method; format: physicochemical; settings: buffer
[3] = Metabolic stability in human liver microsomes assessed as half life at 1 uM measured upto 60 mins by LC-MS/MS analysis; format: ADME, Microsome; settings: for t1/2: microsomes, 1 h, 1 µM; for half-life at 1 µM: liver microsomes
[4] = Metabolic stability in human liver microsomes assessed as compound remaining at 1 uM measured upto 60 mins in presence of NADPH for 15 mins by LC-MS/MS analysis; format: ADME, Microsome; settings: for Stability: microsomes, 1 h, 1 µM; for remaining at 1 h, 1 µM: liver microsomes, read-out: Stability
[5] = Plasma protein binding in human assessed as free fraction at 1 mM by equilibrium dialysis assay; format: ADME, cell-free
[6] = Metabolic stability in mouse liver microsomes assessed as half life at 1 uM measured upto 60 mins by LC-MS/MS analysis; format: ADME, Microsome; settings: for half-life at 1 µM: liver microsomes; for t1/2: microsomes, 1 h, 1 µM
[7] = Aqueous solubility of compound in pH 7.4 phosphate buffer; format: physicochemical
[8] = Metabolic stability in mouse liver microsomes assessed as compound remaining at 1 uM measured upto 60 mins in presence of NADPH for 15 mins by LC-MS/MS analysis; format: ADME, Microsome; settings: for remaining at 1 h, 1 µM: liver microsomes, read-out: Stability; for Stability: microsomes, 1 h, 1 µM
[9] = Metabolic stability in mouse liver microsomes assessed as intrinsic clearance at 1 uM measured upto 60 mins by LC-MS/MS analysis; format: ADME, Microsome; settings: 1 h
[10] = Metabolic stability in human liver microsomes assessed as intrinsic clearance at 1 uM measured upto 60 mins by LC-MS/MS analysis; format: ADME, Microsome; settings: 1 h
[11] = Metabolic stability in mouse liver microsomes at 1 uM measured upto 60 mins by LC-MS/MS analysis; format: ADME, Microsome; settings: 1 h
[12] = test system: HepG2; assay: Cytotoxicity against human HepG2 cells assessed as inhibition of cell growth incubated for 3 days by trypan blue assay; format: functional, cell-based; settings: HepG2, 72 h

SMILES | logP [1] | logD [2] | fraction unbound [5] | solubility [7] [µM] | also measured
c1ccc2c(c1)CCCN2OCCN1CCN(C2CCCCC2)CC1 | 5 | 2.4 | 0.341 | > 300 | t1/2 [3]: 13.74 min; Stability [4]: 48.07%; half-life at 1 µM [6]: 3.19 min; remaining at 1 h, 1 µM [8]: 4.32%
c1ccc2c(c1)CCCC2OCCN1CCN(C2CCCCC2)CC1 (stereo not given) | 5 | 2.7 | 0.322 | 287 (≈ 98.3 µg/mL) | t1/2 [3]: 5.67 min; Stability [4]: 17.01%; half-life at 1 µM [6]: 3.12 min; remaining at 1 h, 1 µM [8]: 3.98%
CCCCCOC1CCc2ccccc2C1 (stereo not given) | 6.6 | – | – | – | –
COc1ccccc1OCCCN1CCOCC1 | 2.3 | 1.3 | 0.573 | 273 (≈ 68.6 µg/mL) | half-life at 1 µM [3]: > 300 min; CLint [9]: 315 µL/min/mg; remaining at 1 h, 1 µM [4]: 91%; half-life at 1 µM [6]: 4.4 min; remaining at 1 h, 1 µM [8]: 10.2%; CLint [10]: < 5 µL/min/mg
COc1ccccc1OCCON1CCOCC1 | 2.1 | 1.3 | 0.625 | 293 (≈ 74.2 µg/mL) | t1/2 [3]: 98.54 min; CLint [9]: 129 µL/min/mg; Stability [4]: 91.54%; t1/2 [6]: 10.75 min; Stability [8]: 36.43%; CLint [10]: 14 µL/min/mg
c1ccc2c(c1)CCCN2CCCN1CCN(C2CCCCC2)CC1 | 5.3 | 1.8 | 0.153 | 275 (≈ 93.9 µg/mL) | half-life at 1 µM [3]: 5.06 min; remaining at 1 h, 1 µM [4]: 13.7%; half-life at 1 µM [6]: 4.07 min; remaining at 1 h, 1 µM [8]: 8.5%
CCCCCCN1CCc2ccccc2C1 | 5.3 | 3.3 | – | – | –
COc1ccccc1OCCCC1CCOCC1 | 3.4 | – | 0.106 | 244 (≈ 61.1 µg/mL) | t1/2 [3]: 18.07 min; Stability [11]: Unstable; Stability [4]: 50.46%; Stability ([8]; BLD = below limit of detection): Bld; CLint [10]: 77 µL/min/mg
CCCCCON1CCc2ccccc2C1 | 5.9 | 4.7 | – | – | –
COc1ccccc1OCCOC1CCOCC1 | 2.1 | – | 0.544 | 275 (≈ 69.4 µg/mL) | t1/2 [3]: 83.41 min; CLint [9]: 196 µL/min/mg; Stability [4]: 82.92%; t1/2 [6]: 7.06 min; Stability [8]: 24.08%; CLint [10]: 17 µL/min/mg
CCCCCCC1CCc2ccccc2C1 (stereo not given) | 7.9 | – | – | – | –
c1ccc2c(c1)CCCC2CCCN1CCN(C2CCCCC2)CC1 (stereo not given) | 6.2 | 3.9 | 0.0519 | 288 (≈ 98.1 µg/mL) | half-life at 1 µM [3]: 5.04 min; CLint [9]: 455 µL/min/mg; remaining at 1 h, 1 µM [4]: 13.6%; half-life at 1 µM [6]: 3.05 min; remaining at 1 h, 1 µM [8]: 3.7%; CLint [10]: 275 µL/min/mg
O=C(CCCCCCC(=O)Nc1ccccc1)NO [VORINOSTAT] | – | – | – | – | IC50 [12]: 3.2 ng/mL (≈ 0.0121 µM)

Continued, in another order:

logP [1] | logD [2] | fraction unbound [5] | solubility [7] [µM] | SMILES | also measured
5.1 | 1 | – | – | c1ccc(CCCN2CCCCC2)cc1 | –
4.8 | 3 | – | – | c1ccc(COCCCON2CCCCC2)cc1 | –
4.8 | 3.2 | – | – | c1ccc(CCON2CCCCC2)cc1 | –
6.6 | – | – | – | c1ccc(CCCC2CCCCC2)cc1 | –
6.2 | – | – | – | c1ccc(CCOC2CCCCC2)cc1 | –
6.2 | – | – | – | c1ccc(COCCCOC2CCCCC2)cc1 | –
5.8 | 0.9 | – | – | c1ccc(COCCCCN2CCCCC2)cc1 | –
6.6 | – | – | – | c1ccc(COCCCCC2CCCCC2)cc1 | –
